Results: US20150086557A1, “NOVEL INTEGRIN alpha9 beta1 LIGAND AND USES THEREOF” (OSAKA UNIVERSITY, priority 2012, published 2015)

How the values were obtained:
RD cells = assay: Cell adhesion assay on coated plates (RD cells); format: cell-based, human
Method: A cell adhesion assay was performed as described in Sato, Y. , Uemura, T., Morimitsu, K., Sato-Nishiuchi, R., Manabe, R., Takagi, J., Yamada, M., and Sekiguchi, K. (2009) J. Biol. Chem. 284, 14524-14536. For an assay involving blocking antibodies, RD cells (human rhabdomyosarcoma cells) were preincubated with monoclonal antibodies of interest at room temperature for 15 minutes and plated on 96-well plates coated with recombinant polydom proteins or fibronectin. The cells were incubated for 30 minutes, washed, fixed with 3.7% formaldehyde, and stained with 0.5% toluidine blue.
The cells were plated on 96-well plates coated with serial diluted concentrations of full-length polydom, pol-N, pol-C or plasma fibronectin (FN) and incubated at 37° C. for 30 minutes. After washing out unattached cells, attached cells were fixed and stained with toluidine blue. The attached cells were counted under a microscope. The assay was performed in triplicate.

A549 cells = assay: Cell adhesion assay on coated plates (A549 cells); format: cell-based, human; details: data not shown
HT1080 cells = assay: Cell adhesion assay on coated plates (HT1080 cells); format: cell-based, human; details: data not shown
hematopoietic stem cells [1] = assay: Proliferation of hematopoietic stem cells on coated plates; format: cell-based, mouse
Method: (§1) Bone marrow cells were flushed out from the femurs and tibias of three mice of 6 to 7 weeks of age (C57BL/6J) and dissociated with a 22G needle. The cells were reacted with a biotin-labeled anti-lineage antibody for 30 minutes and subsequently with an anti-blotin antibody-conjugated magnetic beads, and lineage-positive cells were removed by automated magnetic cell sorter autoMACS (Miltenyi Biotec). After staining with PE-CD3, PE-Mac1, PE-Gr1, PE-Ter119, PE-B220, FTTC-Sca1 and APC-c-Kit, a lineage(−) Sca1(+) c-Kit (high) cell fraction was sorted out using FACSAria and used for the experiments described below.
(§2) The above-prepared cells were plated on a 48-well plate coated with a recombinant polydom protein or fibronectin. The same type of plate without coating was used as a control. The medium used was RPMI containing 10% fetal calf serum, thrombopoietin (30 ng/ml) and flt3 ligand (100 ng/ml). For the examination of cell proliferation, the cells were plated in duplicate wells for each coating at 1000 cells/well and started to be cultured, and the cell number was counted at the start of culture, and on day 2 and day 3. The remaining cells were divided into three aliquots, plated in wells for each coating, and subjected to FACS analysis on day 3 after the start of culture. For the FACS analysis, staining with an antibody cocktail containing PE-CD3, PE-Mac1, PE-Gr1, PE-Ter119, PE-B220, FITC-Sca1 and APC-c-Kit was performed and FACSCont was used.
The above-prepared cells were divided into three groups and plated on 48-well plates at 5000 cells/well. The medium used was RPMI containing 10% fetal calf serum, thrombopoietin (30 ng/ml) and flt3 ligand (100 ng/ml). For an EDDMMEVPY peptide treatment group, 2 μl of the peptide was added to each well at the final concentration of 50 μM, and for the other two groups, 2 μl of PBS was added to each well. Then, the culture was performed at […] for 2 hours. Subsequently, the cells were transferred to 48-well plates coated with a recombinant polydom protein or fibronectin. The cells cultured in the presence of the peptide were transferred to the recombinant polydom protein-coated plate, and the cells in one of the other two groups were transferred to the recombinant polydom protein-coated plate, and the cells in the remaining group were transferred to the fibronectin-coated plate. The culture was continued for 3 days and the cell numbers were counted on day 2, day 3 and […].

hematopoietic stem cells [2] = assay: FACS analysis of differentiation of hematopoietic stem cells on coated wells; format: cell-based, mouse; details: day 3 of culture on coated well, FIG. 19
Method: as §1, §2

cardiac stem cells [3] = assay: Cell adhesion assay using GFP label-retaining cells (cardiac stem cells); format: cell-based, mouse; details: 100 nM coating, FIG. 25
From the text: (§3) Tissue stem cells are known to generally have a very prolonged, cell cycle and thus allow labeling compounds incorporated into DNA and the cell interior to remain stable for a long period of time without decay along with cell division, This nature can be advantageously used to identify and separate tissue stem cells by short-term labeling or cells with a nucleotide analog such as bromodeoxyuridine (BrdU) or a fusion protein of green fluorescent protein (hereinafter referred to as “GFP”) and a nucleoprotein, histone, followed by selection of cells retaining the label for a long period of time (label-retaining cells). In this experiment, with the use of a tetracycline-inducible expression system in combination with the ROSA26 promoter, a fusion protein of GFP and histone H2B (H2B-GFP) was expressed in the heart of a mouse for 2 weeks starting 1 week before birth, and 6 weeks later, cardiac stem cells were separated as GFP label-retaining cells from the heart.
To explore whether polydom serves as a scaffold for integrin α9β1-expressing cardiac stem cells, cardiac stem cells were separated as GFP label-retaining cells and subjected to a cell adhesion assay. A 96-well immuno plate (Nunc Maxisorp) was coated with 50 μl/well of 100 nM polydom or fibronectin at 4° C. overnight, GFP label-retaining cells were collected by FACSAria and suspended at 1×10^6 cells/ml in serum-free Iscove's Modified Dulbecco Medium (hereinafter referred to as “IMDM”). The cell suspension was plated at 100 μl/well and cultured in a 5% CO2 incubator at 37° C. for 12 hours. After three washes with PBS, the cells were fixed with 100 μl/well of 3.7% formalin for 15 minutes. Then, the cells were incubated with 0.5% toluidine blue (150 μl/well) for 10 minutes and washed with MilliQ water. After drying, the number of attached cells was counted under a microscope.

cardiac stem cells [4] = assay: Colony forming ability of GFP label-retaining cells (cardiac stem cells); format: cell-based, mouse; details: 100 nM coating, 1×10^4 cells/well, 2 weeks, FIG. 26
From the text: as §3
To explore whether cardiac stem cells proliferate on a polydom-coated plate, colony formation was measured, as an indicator of proliferation. A Falcon 6-well plate was coated with 800 μl/well of 100 nM polydom or fibronectin at 4° C. overnight. GFP label-retaining cells were collected by FACSAria and suspended in IMDM containing 10% fetal calf serum. […] After drying, the number of colonies was counted under a microscope.

polydom: recombinant mouse SVEP1 (SEQ ID NO: 2), ECM protein, ligand for integrin α9β1
coating concentration attaining the maximum adhesion of RD cells (RD cells; 96-well plates, 37° C. for 30 minutes, FIG. 4): 3 µg/mL
promotion of RD cell adhesion (RD cells; coated 96-well plates, 37° C. for 30 minutes, FIG. 4): coating concentration-dependent manner
morphology of attached RD cells (RD cells; microscopic observation, FIG. 5): exhibited spread morphology
adhesion of A549 cells (A549 cells): did not adhere
adhesion of HT1080 cells (HT1080 cells): did not adhere
proliferation of hematopoietic stem cells on coated wells (hematopoietic stem cells [1]; 1000 cells/well, counted to day 3, versus uncoated control, FIG. 18): remarkably inhibited from proliferating
proliferation of hematopoietic stem cells on coated plate after PBS pretreatment (hematopoietic stem cells [1]; 5000 cells/well, counted day 2 to day 4, FIG. 20): remarkably inhibited from proliferating
expression of Sca1 on hematopoietic stem cells (hematopoietic stem cells [2]): maintained the expression of Sca1
expression of c-Kit on hematopoietic stem cells (hematopoietic stem cells [2]): reduced expression of c-Kit
adhesion of cardiac stem cells to coated plate (cardiac stem cells [3]; 12 hours, serum-free IMDM): a large number of the cells adhered
cell adhesion activity for cardiac stem cells compared with fibronectin (cardiac stem cells [3]): equivalent or superior to fibronectin
colony forming activity (colony count relative to the number of cells plated) (cardiac stem cells [4]): about 0.8%
